Patent publication US20220409614A1, “TREATING BEHAVIORAL AND PSYCHOLOGICAL SYMPTOMS IN DEMENTIA PATIENTS” (SUVEN LIFE SCIENCES LIMITED, priority 2019, published 2022)
Where two headings read alike, the source gives them in different places.

Assays:
patients with AD = conditions: citalopram treatment group; cited from earlier work
[1] = cited from earlier work
[2] = short-term treatment; cited from earlier work
[3] = system: subjects with moderate AD; assay: Phase 2 study in moderate AD, ADAS-Cog 11 assessment; format: in vivo, humans; conditions: for change from baseline in ADAScog-11 scores vs placebo: 50 mg
From the text: The study consisted of a 2 to 4-week screening period, followed by a 26-week double-blind treatment period and a 4-week single-blind placebo washout period. […] Population: The study population included male or female subjects, 50 to 85 years of age, with moderate dementia due to probable AD (MMSE 12-20, both inclusive) based on the National Institute of Neurological and Communicative Diseases and Stroke/Alzheimer's Disease and Related Disorders Association ([…]) criteria, diagnosed at least 1 year prior to the study and receiving stable doses for at least 3 months of donepezil HCl (10 mg qd) and either memantine HCl (10 mg bid) or […]® (28 mg memantine HCl extended-release qd) or the combination therapy, NamzaricTM (28 mg memantine HCl extended-release/10 mg donepezil HCl) qd. […] Throughout the study, all subjects continued to receive donepezil HCl (10 mg qd) and memantine HCl (10 mg bid) or […]® (28 mg memantine HCl extended-release qd) or the combination therapy, NamzaricTM (28 mg memantine HCl extended-release/10 mg donepezil HCl) qd. […] During the washout period, all subjects were received placebo in addition to donepezil HCl and memantine HCl. The Alzheimer's Disease Assessment Scale-Cognitive Subscale (ADAS-Cog) was developed to assess the level of cognitive dysfunction in AD. It is also used for assessing the efficacy of anti-dementia treatments. The ADAScog-11 is a brief measure of cognition, including word recall, commands, constructional praxis, naming objects and fingers, ideational praxis, orientation, word recognition task, remembering test instructions, spoken language ability, word-finding difficulty, and comprehension of spoken language. The test is scored by an administrator who adds up points for the errors in each task for a total score ranging from 0 to 70. The greater the dysfunction, the greater the score. A score of 70 represents the most severe impairment. Data was analyzed using a mixed effects model for repeated measures (MMRM). The model included fixed categorical factors for treatment, week, treatment-by-week interaction, and APO-E status (carrier-one allele, carrier-two alleles, and non-carrier), as well as a continuous covariate of baseline score, the baseline score-by-week interaction, age, and baseline MMSE score. In subgroup analysis, stratification was based on the baseline symptoms and/or symptom emergence.

[4] = system: subjects with moderate AD; assay: Phase 2 study in moderate AD, NPI-12 (Neuropsychiatric Inventory) assessment; format: in vivo, humans; conditions: for effect on NPI domains as measured by the NPI-12 scale: overall statement
From the text: The study consisted of a 2 to 4-week screening period, followed by a 26-week double-blind treatment period and a 4-week single-blind placebo washout period. […] Population: The study population included male or female subjects, 50 to 85 years of age, with moderate dementia due to probable AD (MMSE 12-20, both inclusive) based on the National Institute of Neurological and Communicative Diseases and Stroke/Alzheimer's Disease and Related Disorders Association ([…]) criteria, diagnosed at least 1 year prior to the study and receiving stable doses for at least 3 months of donepezil HCl (10 mg qd) and either memantine HCl (10 mg bid) or […]® (28 mg memantine HCl extended-release qd) or the combination therapy, NamzaricTM (28 mg memantine HCl extended-release/10 mg donepezil HCl) qd. […] Throughout the study, all subjects continued to receive donepezil HCl (10 mg qd) and memantine HCl (10 mg bid) or […]® (28 mg memantine HCl extended-release qd) or the combination therapy, NamzaricTM (28 mg memantine HCl extended-release/10 mg donepezil HCl) qd. […] During the washout period, all subjects were received placebo in addition to donepezil HCl and memantine HCl. The NPI is a 12-item structured interview with a caregiver designed to assess behavioral disturbances in patients with dementia. The NPI comprises 10 behavioral (hallucinations, delusions, agitation/aggression, dysphoria/depression, anxiety, irritability, disinhibition, euphoria/elation, apathy and aberrant motor behavior), and neurovegetative items (sleep and night-time behavior change, appetite and eating change). The behavioral domains are assessed in terms of frequency, severity and distress. Each item consists of a screening question and several sub-questions which are rated no (not present) or yes (present). Each item is then rated for frequency (a 4-point scale from 1 [occasionally] to 4 [very frequently]), severity (a 3-point scale from 1 [mild] to 3 [marked]), and caregiver distress (a 6-point scale from 0 [not at all] to 5 [very severely or extremely]). The total score 12 items of the frequency and severity ratings range from 0 to 144 and the total score 12 items of caregiver distress ranges from 0 to 60. The NPI was administered to the subject's caregiver and scored by a qualified, trained rater at baseline and Weeks 4, 13 and 26. Data was analyzed using a mixed effects model for repeated measures (MMRM). The model included fixed categorical factors for treatment, week, treatment-by-week interaction, and APO-E status (carrier-one allele, carrier-two alleles, and non-carrier), as well as a continuous covariate of baseline score, the baseline score-by-week interaction, age, and baseline MMSE score. In subgroup analysis, stratification was based on the baseline symptoms and/or symptom emergence.

[5] = system: subjects with moderate AD; assay: Phase 2 study in moderate AD, safety and tolerability assessment; design: species or system humans; conditions: in vivo
Procedure: The study consisted of a 2 to 4-week screening period, followed by a 26-week double-blind treatment period and a 4-week single-blind placebo washout period.
Throughout the study, all subjects continued to receive donepezil HCl (10 mg qd) and memantine HCl (10 mg bid) or Namenda XR® (28 mg memantine HCl extended-release qd) or the combination therapy, Namzaric™ (28 mg memantine HCl extended-release/10 mg donepezil HCl) qd.
The safety assessed by monitoring adverse events, physical examinations, vital signs, clinical laboratory tests and electrocardiograms.

[6] = baseline domain score ≥1, mITT, 50 mg, Week 4
[7] = baseline domain score ≥1, mITT, 50 mg, Week 13
[8] = baseline domain score ≥1, mITT, 50 mg, Week 26
[9] = baseline domain score ≥1, mITT, 100 mg, Week 4
[10] = baseline domain score ≥1, mITT, 100 mg, Week 13
[11] = baseline domain score ≥1, mITT, 100 mg, Week 26

Compound: CN(C)CCCC1(c2ccc(F)cc2)OCc2cc(C#N)ccc21 (stereo not drawn) [Citalopram]
- QT interval (patients with AD): QT interval prolongation
- cognition (patients with AD): Worsening of cognition

Compound: CC(C)COc1ccc(CNC(=O)N(Cc2ccc(F)cc2)C2CCN(C)CC2)cc1 [Pimavanserin]
- effect on NPI-NH psychosis scale ([1]; week 6): statistically significant effect
- effect on NPI-NH psychosis scale ([1]; week 12): no effect was evident

Compound: O=C1CCc2ccc(OCCCCN3CCN(c4cccc(Cl)c4Cl)CC3)cc2N1 [aripiprazole]
- symptomatic benefit in BPSD [2]: modest symptomatic benefit

Compound: COc1ccc2c(c1)c(CN1CCN(C)CC1)cn2S(=O)(=O)c1ccccc1Br [masupirdine, 1-[(2-bromophenyl)sulfonyl]-5-methoxy-3-[(4-methyl-1-piperazinyl)methyl]-1H-indole]
- change from baseline in ADAScog-11 scores vs placebo ([3]; baseline delusion and/or hallucination score ≥1, mITT, Week 26): statistically significant treatment difference
- change from baseline in ADAScog-11 scores vs placebo ([3]; baseline delusion and/or hallucination score ≥1, treatment added as covariate): statistically significant treatment difference
- change from baseline in ADAScog-11 scores vs placebo ([3]; baseline delusion and/or hallucination score ≥1, treatment and time added as covariates): statistically significant treatment differences
- cognition as assessed by ADAS-Cog 11 scale ([3]; subjects with delusions and hallucinations (baseline symptoms)): significantly improved cognition
- change from baseline at Week 26 in ADAS-Cog 11 score (primary efficacy endpoint) ([3]; vs placebo, whole study population): did not show significant treatment advantage in cognition over placebo
- change from baseline in mean NPI-12 scores vs placebo ([4]; 50 mg, Week 4): statistically significant treatment differences
- change from baseline in mean agitation/aggression domain scores of NPI-12 vs placebo ([4]; 50 mg, Week 26, no subgroup): statistically significant treatment difference
- mean NPI-12 scores ([4]; Week 13, all 3 treatment arms): remained similar to baseline
- mean NPI-12 scores ([4]; Week 26, masupirdine dose groups): remained similar to baseline
- change from baseline in NPI-12 domain sleep and nighttime behavior vs placebo ([4]; baseline domain score ≥1, 50 mg, Week 26): statistically significant treatment differences
- change from baseline in NPI-12 domain sleep and nighttime behavior vs placebo ([4]; baseline domain score ≥1, 100 mg, Week 13): statistically significant treatment difference
- change from baseline in NPI-12 domain sleep and nighttime behavior vs placebo ([4]; baseline domain score ≥1, 100 mg, Week 26): statistically significant treatment differences
- change from baseline in NPI-12 domain aberrant motor behavior vs placebo [4, 6]: statistically significant treatment differences
- change from baseline in NPI-12 domain delusions and/or hallucinations vs placebo [4, 6]: statistically significant treatment difference
- change from baseline in NPI-12 domain sleep and nighttime behavior vs placebo [4, 6]: statistically significant treatment difference
- change from baseline in mean euphoria/elation scores vs placebo [4, 6]: statistically significant treatment differences
- extended composite NPI-12 score domain (agitation/aggression, aberrant motor behavior and sleep and nighttime behavior disorders) vs placebo [4, 6]: statistically significant treatment differences
- change from baseline in NPI-12 domain aberrant motor behavior vs placebo [4, 7]: statistically significant treatment difference
- change from baseline in NPI-12 domain delusions and/or hallucinations vs placebo [4, 7]: statistically significant treatment difference
- change from baseline in mean agitation/aggression scores vs placebo [4, 7]: statistically significant treatment difference
- change from baseline in mean euphoria/elation scores vs placebo [4, 7]: statistically significant treatment differences
- change from baseline in mean agitation/aggression scores vs placebo [4, 8]: statistically significant treatment difference
- change from baseline in mean euphoria/elation scores vs placebo [4, 8]: statistically significant treatment differences
- extended composite NPI-12 score domain (agitation/aggression, aberrant motor behavior and sleep and nighttime behavior disorders) vs placebo [4, 8]: statistically significant treatment differences
- change from baseline in NPI-12 domain delusions and/or hallucinations vs placebo [4, 9]: statistically significant treatment difference
- change from baseline in NPI-12 domain sleep and nighttime behavior vs placebo [4, 9]: statistically significant treatment difference
- change from baseline in mean agitation/aggression scores vs placebo [4, 10]: statistically significant treatment difference
- extended composite NPI-12 score domain (agitation/aggression, aberrant motor behavior and sleep and nighttime behavior disorders) vs placebo [4, 10]: statistically significant treatment differences
- change from baseline in NPI-12 domain disinhibition vs placebo [4, 11]: statistically significant treatment difference
- extended composite NPI-12 score domain (agitation/aggression, aberrant motor behavior and sleep and nighttime behavior disorders) vs placebo [4, 11]: statistically significant treatment differences
- change from baseline in mean agitation/aggression scores vs placebo ([4]; baseline domain score ≥1, mITT, treatment and time added as covariates): statistically significant treatment differences
- extended composite NPI-12 score domain (agitation/aggression, aberrant motor behavior and sleep and nighttime behavior disorders) vs placebo ([4]; baseline domain score ≥1, treatment added as covariate, 50 mg): statistically significant treatment difference
- change from baseline in NPI-12 domain sleep and nighttime behavior vs placebo ([4]; baseline domain score ≥1, treatment added as covariate, 50 mg, Week 26): statistically significant treatment difference
- change from baseline in NPI-12 domain delusions and/or hallucinations vs placebo ([4]; baseline domain score ≥1, treatment added as covariate, 100 mg): statistically significant treatment difference
- change from baseline in NPI-12 domain sleep and nighttime behavior vs placebo ([4]; baseline domain score ≥1, treatment added as covariate, 100 mg, Week 26): statistically significant treatment difference
- change from baseline in NPI-12 domain delusions and/or hallucinations vs placebo ([4]; baseline domain score ≥1, treatment and time added as covariates): statistically significant treatment differences
- change from baseline in mean agitation/aggression scores vs placebo ([4]; baseline domain score ≥3, mITT, 50 mg, Week 13): statistically significant treatment difference
- change from baseline in mean agitation/aggression scores vs placebo ([4]; baseline domain score ≥3, mITT, 50 mg, Week 26): statistically significant treatment difference
- change from baseline in mean agitation/aggression scores vs placebo ([4]; baseline domain score ≥3, mITT, 100 mg, Week 13): statistically significant treatment difference
- change from baseline in mean agitation/aggression scores vs placebo ([4]; baseline domain score ≥3, treatment added as covariate, 50 mg, Week 26): statistically significant treatment difference
- change from baseline in mean agitation/aggression scores vs placebo ([4]; baseline domain score ≥3, treatment and time added as covariates): statistically significant treatment differences
- effect on NPI domains as measured by the NPI-12 scale [4]: beneficial effects
- effect on NPI domains as measured by the NPI-12 scale ([4]; listed as Masupirdine): significant treatment effect
- behavioral and psychological symptoms as assessed by NPI-12 subscale scores ([4]; subgroup analyses): significant improvement
- safety and tolerability [5]: safe and well tolerated with no significant adverse events

Compound: Cc1nc2n(c(=O)c1CCN1CCC(c3noc4cc(F)ccc34)CC1)CCCC2 [risperidone]
- symptomatic benefit in BPSD [2]: modest symptomatic benefit
